Measurements taken from US11254640B2, “N-substituted indoles and other heterocycles for treating brain disorders” (The Regents of the University of California, priority 2019, dated 2022).
Entries after “also recorded” stand apart in the source; their conditions may differ. Where two headings read alike, the source gives them in different places.

What was measured:
[1] = tested on: cortical neurons; assay: Dendritogenesis assay, Sholl analysis; assay type: cell-based, rat; conditions: for Emax at 10 µM: Rattus norvegicus, Cortical neurone, Nmax with vehicle (DMSO) = 0% and ketamine = 100%, read-out: % efficacy in sholls; for psychoplastogenic efficacy and potency, concentration-response (Nmax): concentrations ranging from 10 μM to 10 pM (FIG. 6)
Summary of the method: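 Rat cortical neurons (timed-pregnant Sprague Dawley) were treated at DIV3 with compound at 10 μM unless noted (0.1% DMSO) for 1 h, washed out, grown 71 h more. Fixed, MAP2-immunostained, imaged; Sholl Nmax, with % efficacy scaled to DMSO (0%) and ketamine (100%).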

[2] = target: T1, 5HT2A (Homo sapiens, UniProt P28223); assay: Calcium flux assay (Calcium secondary messenger pathway); assay type: cell-based; conditions: agonist mode
T1 construct: expressed in transfected cells
Summary of the method: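 Gq-coupled calcium mobilization in cells stably expressing 5HT2A, loaded 30–60 min at 37 °C with calcium-sensitive dye in HBSS/20 mM Hepes with 2.5 mM probenecid. Compound added 5 s into a 2-min FLIPR Tetra fluorescence read at room temperature; % activity relative to vehicle and maximal control-ligand RFU.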

[3] = tested on: C57BL/6J mice; assay: Head twitch response (HTR) assay; assay type: in vivo, mouse; conditions: intraperitoneal injection, head-twitches over 20 mins (FIG. 8, FIG. 9)
Excerpt: Animals. For the dendritogenesis experiments, timed pregnant Sprague Dawley rats were obtained from Charles River Laboratories (Wilmington, Mass.). For the head-twitch response assay, male and female C57BL/6J mice were obtained from Jackson Laboratory (Sacramento, Calif.). Mice were housed in a temperature and humidity-controlled room maintained on a 12-h light/dark cycle in groups of 4-5 (same sex). Animals weighed between 17 and 30 g at the time of the experiments. All experimental procedures involving rodents were approved by the UC Davis Institutional Animal Care and Use Committee (IACUC) and adhered to principles described in the National Institutes of Health Guide for the Care and Use of Laboratory Animals. The University of California, Davis and the University of California, San Francisco are accredited by the Association for Assessment and Accreditation of Laboratory Animal Care International (AAALAC).
Head twitch response experiments. Mice (9-10 weeks old) were injected intraperitoneally with compound (injection volume 5 ml/kg), placed in an empty cage, and filmed for 20 minutes. Cages were cleaned with 70% ethanol between experiments.

[4] = tested on: rats; conditions: rats trained to discriminate DOM from saline, cited from earlier work

T1 sequence (P28223 whole entry): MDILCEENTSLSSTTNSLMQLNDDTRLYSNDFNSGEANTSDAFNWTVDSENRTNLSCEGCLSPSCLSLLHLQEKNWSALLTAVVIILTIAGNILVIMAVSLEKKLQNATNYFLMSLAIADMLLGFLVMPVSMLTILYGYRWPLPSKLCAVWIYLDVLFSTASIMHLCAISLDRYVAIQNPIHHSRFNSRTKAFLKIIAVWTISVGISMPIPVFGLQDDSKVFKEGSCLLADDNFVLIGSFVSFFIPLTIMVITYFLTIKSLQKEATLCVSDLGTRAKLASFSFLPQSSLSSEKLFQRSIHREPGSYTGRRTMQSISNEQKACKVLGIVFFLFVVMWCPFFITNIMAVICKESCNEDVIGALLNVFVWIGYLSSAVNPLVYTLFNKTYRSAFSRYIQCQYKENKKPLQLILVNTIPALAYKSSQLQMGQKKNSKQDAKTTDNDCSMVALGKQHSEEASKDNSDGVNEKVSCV

Compound	Emax at 10 µM ([1]; 10 μM)	melting point	EC50 [2]	head-twitch response (hallucinogenic potential) [3]	psychoplastogenic efficacy and potency, concentration-response (Nmax) [1]	substitution for hallucinogenic training drug (DOM) in drug discrimination [4]	substitution for hallucinogenic training drug (DOM) in drug discrimination ([4]; listed as 5-MeO-isoDMT)	dendritic arbor complexity / neuronal growth (Nmax of Sholl plots) ([1]; cortical neurons, 10 μM)
COc1cccc2c1ccn2CCN(C)C.O=C(O)/C=C/C(=O)O [Example 3, 2-(4-methoxy-1H-indol-1-yl)-N,N-dimethylethan-1-amine]	26%	140 to 145 °C	> 10 µM					
C[C@H](Cn1ccc2cc(F)ccc21)N(C)C [Example 60, (R)-1-(5-fluoro-1H-indol-1-yl)-N,N-dimethylpropan-2-amine]			> 10 µM	did not produce any HTR				
COc1ccc2c(ccn2C[C@@H](C)N(C)C)c1 [Example 59, (R)-1-(5-methoxy-1H-indol-1-yl)-N,N-dimethylpropan-2-amine]			> 10 µM	did not produce any HTR				
COc1ccc2c(ccn2CCN(C)C)c1.O=C(O)/C=C/C(=O)O [Example 4, 2-(5-methoxy-1H-indol-1-yl)-N,N-dimethylethan-1-amine]	65%	140 to 142 °C	> 10 µM	low hallucinogenic potential; also recorded: did not produce any HTR	exceptional psychoplastogen	low hallucinogenic potential	does not	
COc1ccc2ccn(CCN(C)C)c2c1 [Example 5, 2-(6-methoxy-1H-indol-1-yl)-N,N-dimethylethan-1-amine]	95%		< 10 µM	significantly less potent	comparable maximum efficacies and had similar potencies as isosteric DMTs (1 and 28)	substitutes		performed identically to 28 and 29
COc1cccc2ccn(CCN(C)C)c12.O=C(O)/C=C/C(=O)O [Example 6, 2-(7-methoxy-1H-indol-1-yl)-N,N-dimethylethan-1-amine]	92%	120 to 123 °C	< 10 µM					
